Laboratory results as given in ChEMBL document CHEMBL1130812, “The design and synthesis of inhibitors of the cysteinyl protease, Der p I” (Bioorg Med Chem Lett, 1998).
Where a SMILES comes first, the peptide text is derived from it. The star is where a group is joined. Boc = CC(C)(C)OC(=O)*

What was measured:
[1] = system: Dermatophagoides pteronyssinus; test: Inhibitory activity against Cysteinyl protease was evaluated by method A in experiment 1
[2] = system: Dermatophagoides pteronyssinus; test: Inhibitory activity against Cysteinyl protease was evaluated by method A in experiment 2
[3] = system: Dermatophagoides pteronyssinus; test: Inhibitory activity against Cysteinyl protease was evaluated by method B
[4] = Reversible Inhibitory activity on Cysteinyl protease was evaluated; design: species or system Dermatophagoides pteronyssinus
[5] = Inhibitory activity against Cysteinyl protease was evaluated; design: species or system Dermatophagoides pteronyssinus
[6] = system: Dermatophagoides pteronyssinus; test: Inhibitory activity against Cysteinyl protease was evaluated by method A

| k obs / 1 [1] | k obs / 1 [2] | SMILES | other results |
| --- | --- | --- | --- |
| 1e+06 M⁻¹ s⁻¹ | 2.2e+06 M⁻¹ s⁻¹ | CCCC[C@H](NC(=O)[C@H](C)NC(=O)[C@@H](NC(=O)c1ccccc1)C(C)C)C(=O)COC(=O)c1c(C(F)(F)F)cccc1C(F)(F)F | k obs / 1 [3]: 1.3e+07 M⁻¹ s⁻¹ |
| 370000 M⁻¹ s⁻¹ | 50000 M⁻¹ s⁻¹ | CCCC[C@H](NC(=O)[C@H](C)NC(=O)[C@@H](NC(=O)c1ccccc1)C(C)C)C(=O)COC(=O)c1ccccc1 |  |

The next lines start with the compound.

| SMILES | k obs / 1 [1] | k obs / 1 [2] | other results |
| --- | --- | --- | --- |
| CCOC(=O)/C=C/[C@H](CC(C)C)NC(=O)[C@H](C)NC(=O)[C@@H](NC(=O)c1ccccc1)C(C)C | 4100 M⁻¹ s⁻¹ | 16000 M⁻¹ s⁻¹ |  |
| CCCC[C@H](NC(=O)[C@H](C)NC(=O)[C@@H](NC(=O)c1ccccc1)C(C)C)C(=O)COC(=O)c1c(Cl)cccc1Cl |  |  | k obs / 1 [3]: 6.8e+07 M⁻¹ s⁻¹ |
| CCCC[C@H](NC(=O)[C@H](C)NC(=O)[C@@H](NC(=O)c1ccccc1)C(C)C)C(=O)COC(=O)c1c(C)cccc1C |  |  | k obs / 1 [3]: 1.6e+07 M⁻¹ s⁻¹ |
| CCCC[C@H](NC(=O)[C@H](C)NC(=O)[C@@H](NC(=O)c1ccccc1)C(C)C)C(=O)CBr |  |  | Ki [4]: 1.6 nM |
| CC(C)C[C@@H](/C=C/S(=O)(=O)Cc1ccccc1)NC(=O)[C@H](C)NC(=O)[C@@H](NC(=O)OC(C)(C)C)C(C)C | 2300 M⁻¹ s⁻¹ | 350000 M⁻¹ s⁻¹ |  |
| CC(C)C[C@@H](C=O)NC(=O)[C@H](C)NC(=O)[C@@H](NC(=O)OC(C)(C)C)C(C)C (Boc-Val-Ala-Leu-aldehyde) |  |  | Ki [5]: 14 nM |
| CCOC(=O)/C=C/[C@H](CC(C)C)NC(=O)[C@H](C)NC(=O)[C@@H](NC(=O)OC(C)(C)C)C(C)C | 1700 M⁻¹ s⁻¹ | 7900 M⁻¹ s⁻¹ |  |
| CC(C)C[C@@H](/C=C/S(=O)(=O)c1ccccc1)NC(=O)[C@H](C)NC(=O)[C@@H](NC(=O)OC(C)(C)C)C(C)C | 6400 M⁻¹ s⁻¹ | 25000 M⁻¹ s⁻¹ |  |
| CCOC(=O)/C=C/[C@H](CC(C)C)NC(=O)[C@H](C)NC(=O)[C@@H](N)C(C)C |  |  | k obs / 1 [6]: < 100 M⁻¹ s⁻¹ |
| CCOC(=O)/C=C/[C@H](CC(C)C)NC(=O)[C@H](C)NC(=O)[C@@H](NC(C)=O)C(C)C |  |  | k obs / 1 [6]: < 100 M⁻¹ s⁻¹ |
| CC(C)C[C@@H](/C=C/S(C)(=O)=O)NC(=O)[C@H](C)NC(=O)[C@@H](NC(=O)OC(C)(C)C)C(C)C | 1100 M⁻¹ s⁻¹ | 11000 M⁻¹ s⁻¹ |  |
